Several values for one entry are separate records, joined by “and”; a condition that tells them apart may be missing. Identical values can stand only once. Like-named read-outs stand apart in the source and are kept apart here.
Tests used:
Alternaria solani = experiment: In vivo preventive test on Alternaria solani (tomato); conditions: evaluated 7 days after inoculation
Text: One day after this treatment, the plants are inoculated with an aqueous spore suspension of Alternaria solani.

Pyrenophora teres = experiment: In vivo preventive test on Pyrenophora teres (barley); conditions: 500 ppm of active ingredient, evaluated 7-9 days after inoculation
Text: One day after this treatment, the plants are inoculated with an aqueous spore suspension of Pyrenophora teres.

[1] = logP by HPLC on reversed-phase column (C 18), EEC Directive 79/831 Annex V.A8; format: physicochemical
Method: In table 1, the logP values were determined in accordance with EEC Directive 79/831 Annex V.A8 by HPLC (High Performance Liquid Chromatography) on a reversed-phase column (C 18), using the method described below: Temperature: 40° C.; […]

Row | SMILES | logP [1] | also measured
1 | CCN(CCc1ccc(Cl)cc1)C(=O)c1c(C(F)F)nn(C)c1Cl [Example 57] | 3.35 | Efficacy (Alternaria solani; 500 ppm of active ingredient): 80%; Efficacy (Pyrenophora teres): 70%
2 | Cn1nc(C(F)F)c(C(=O)NC2CC2c2ccc(F)cc2)c1Cl (stereo not shown) [Example 221] | 2.75 | –
3 | Cn1nc(C(F)F)c(C(=O)NCCc2ccccc2Oc2ccccc2)c1F [Example 140] | 3.48 | Efficacy (Alternaria solani; 500 ppm of active ingredient): 100%; Efficacy (Pyrenophora teres): 95%
4 | Cn1nc(C(F)F)c(C(=O)N(CCc2ccccn2)C2CCCC2)c1F [Example 176] | 1.29 | –
5 | Cn1nc(C(F)F)c(C(=O)N(CCc2ccccn2)C2CCCC2)c1Cl [Example 181] | 1.40 | –
6 | Cn1nc(C(F)F)c(C(=O)N(CCc2ccccc2)C2CCCC2)c1Cl [Example 6] | 3.89 | –
7 | Cn1nc(C(F)F)c(C(=O)NCC(C)(C)c2ccc(Oc3ccccc3)cc2)c1Cl [Example 158] | 4.21 | Efficacy (Alternaria solani; 500 ppm of active ingredient): 80%
8 | Cn1nc(C(F)F)c(C(=O)N(C[Si](C)(C)c2ccc3ccccc3c2)C2CC2)c1Cl [Example 246] | 4.51 | –
9 | Cn1nc(C(F)F)c(C(=O)NCC(C)(C)c2cc(Cl)cc(Cl)c2)c1F [Example 113] | 3.87 | Efficacy (Alternaria solani; 500 ppm of active ingredient): 80%; Efficacy (Pyrenophora teres): 90%
10 | Cn1nc(C(F)F)c(C(=O)N(CCc2ccncc2)C2CCCC2)c1F [Example 201] | 1.20 | –
11 | Cc1cc(C)c(CCN(C)C(=O)c2c(C(F)F)nn(C)c2Cl)c(C)c1 [Example 137] | 3.67 | Efficacy (Alternaria solani; 500 ppm of active ingredient): 90%
12 | Cn1nc(C(F)F)c(C(=O)NC2CCCCC2c2ccccc2)c1F (stereo not shown) [Example 213] | 3.29 | Efficacy (Alternaria solani; 500 ppm of active ingredient): 89%
13 | Cn1nc(C(F)F)c(C(=O)NC(C)(C)Cc2cccc(Oc3ccccc3)c2)c1Cl [Example 144] | 4.30 | Efficacy (Alternaria solani; 500 ppm of active ingredient): 95%
14 | CC(C)N(CCc1ccncc1)C(=O)c1c(C(F)F)nn(C)c1Cl [Example 205] | 0.98 | –
15 | Cn1nc(C(F)F)c(C(=O)N(CCC#N)CCc2ccccc2)c1Cl [Example 8] | 2.53 | –
16 | Cn1nc(C(F)F)c(C(=O)NCC(C)(C)c2ccccc2Cl)c1F [Example 45] | 3.27 | Efficacy (Alternaria solani; 500 ppm of active ingredient): 90%; Efficacy (Pyrenophora teres): 100%
17 | Cn1nc(C(F)F)c(C(=S)NCC(C)(C)c2ccc(Cl)cc2Cl)c1Cl [Example 89] | 4.72 | Efficacy (Pyrenophora teres): 100%
18 | Cn1nc(C(F)F)c(C(=O)N(CCc2ccccc2)C2CCCC2)c1F [Example 1] | 3.69 | –
19 | CC(Cc1c(Cl)cccc1Cl)N(C(=O)c1c(C(F)F)nn(C)c1Cl)C1CC1 (stereo not shown) [Example 116] | 4.29 | Efficacy (Alternaria solani; 500 ppm of active ingredient): 100%; Efficacy (Pyrenophora teres): 100%
20 | Cn1nc(C(F)F)c(C(=O)NCC(C)(C)c2ccc(Oc3ccccc3)cc2)c1F [Example 157] | 4.06 | Efficacy (Pyrenophora teres): 80%
21 | Cn1nc(C(F)F)c(C(=O)NCCc2ccc(Cl)nc2)c1Cl [Example 196] | 1.90 | –
22 | Cn1nc(C(F)F)c(C(=S)NCCc2ccc(Cl)cc2Cl)c1Cl [Example 72] | 4.11 | Efficacy (Alternaria solani; 500 ppm of active ingredient): 94%; Efficacy (Pyrenophora teres): 100%
23 | Cn1nc(C(F)F)c(C(=O)NC2CCCCC2c2ccccc2)c1Cl (stereo not shown) [Example 214] | 3.33 | –
24 | Cn1nc(C(F)F)c(C(=O)N(CCc2ccccn2)C2CCCCC2)c1F [Example 175] | 1.48 | –

Row | SMILES | logP [1] | also measured
25 | CN(CCc1ccccc1)C(=O)c1c(C(F)F)nn(C)c1Cl [Example 9] | 2.60 | Efficacy (Alternaria solani; 500 ppm of active ingredient): 95%; Efficacy (Pyrenophora teres): 95%
26 | Cn1nc(C(F)F)c(C(=O)N(CCc2ccncc2)C2CCCCC2)c1F [Example 200] | 1.39 | –
27 | Cn1nc(C(F)F)c(C(=O)NCC(C)(C)c2ccccc2Cl)c1Cl [Example 46] | 3.48 | Efficacy (Alternaria solani; 500 ppm of active ingredient): 70%
28 | Cn1nc(C(F)F)c(C(=O)NC(C)(C)Cc2cccc(Oc3ccccc3)c2)c1F [Example 142] | 4.09 | Efficacy (Alternaria solani; 500 ppm of active ingredient): 90%; Efficacy (Pyrenophora teres): 78%
29 | CC(C)N(CCc1ccccn1)C(=O)c1c(C(F)F)nn(C)c1Cl [Example 182] | 1.00 | –
30 | CCN(C(=O)c1c(C(F)F)nn(C)c1Cl)C(C)C(=O)c1ccccc1 (stereo not shown) [Example 18] | 2.71 | –
31 | COc1ccc(CCN(C)C(=O)c2c(C(F)F)nn(C)c2Cl)cc1OC [Example 131] | 2.18 | –
32 | COc1ccc(CCN(C(=O)c2c(C(F)F)nn(C)c2F)C2CCCCC2)cc1OC [Example 130] | 3.42 | –
33 | Cn1nc(C(F)F)c(C(=O)NCCc2ccccc2C(F)(F)F)c1Cl [Example 122] | 3.11 | Efficacy (Alternaria solani; 500 ppm of active ingredient): 95%; Efficacy (Pyrenophora teres): 94%
34 | Cn1nc(C(F)F)c(C(=O)NCCc2ccccc2Oc2ccccc2)c1Cl [Example 141] | 3.64 | Efficacy (Alternaria solani; 500 ppm of active ingredient): 80%
35 | COCCN(CCc1ccncc1)C(=O)c1c(C(F)F)nn(C)c1F [Example 199] | 1.56 | –
36 | Cn1nc(C(F)F)c(C(=O)NCCc2c(F)c(F)nc(F)c2F)c1Cl [Example 209] | 2.60 | –
37 | CCN(CCc1ccc(Cl)cc1)C(=S)c1c(C(F)F)nn(C)c1F [Example 58] | 3.92 | Efficacy (Pyrenophora teres): 100%
38 | COc1ccc(CCN(C(=O)c2c(C(F)F)nn(C)c2Cl)C2CCCCC2)cc1OC [Example 132] | 3.53 | –
39 | CN(CC(=O)c1ccc(Cl)cc1)C(=O)c1c(C(F)F)nn(C)c1Cl [Example 62] | 2.68 | –
40 | Cn1nc(C(F)F)c(C(=O)NCC(C)(C)c2ccc(Cl)cc2)c1Cl [Example 64] | 3.58 | Efficacy (Alternaria solani; 500 ppm of active ingredient): 100%
41 | Cn1nc(C(F)F)c(C(=O)NCC(C)(C)c2cccc(Oc3ccccc3)c2)c1F [Example 148] | 3.92 | –
42 | CC(CN(C)C(=O)c1c(C(F)F)nn(C)c1F)c1ccncc1 (stereo not shown) [Example 206] | 1.60 | –
43 | Cn1nc(C(F)F)c(C(=O)NCCc2ccc(Cl)nc2)c1F [Example 197] | 1.78 | –
44 | COCCN(CCc1ccccn1)C(=O)c1c(C(F)F)nn(C)c1F [Example 177] | 0.50 | –
45 | CC(C)N(CCc1ccc(F)cc1)C(=O)c1c(C(F)F)nn(C)c1F [Example 23] | 3.23 | –
46 | CN(CCc1ccc(C(C)(C)C)cc1)C(=O)c1c(C(F)F)nn(C)c1Cl [Example 139] | 3.96 | Efficacy (Alternaria solani; 500 ppm of active ingredient): 90%; Efficacy (Pyrenophora teres): 90%
47 | Cn1nc(C(F)F)c(C(=S)N(C2CC2)C2CCCCC2(C)c2ccccc2)c1F (mixture of isomers) [Example 219] | – | logP ([1]; HPLC on reversed-phase column (C 18), 40° C., 0.1% aqueous formic acid and acetonitrile, linear gradient 10% to 90% acetonitrile): 5.01 and 5.11
48 | Cn1nc(C(F)F)c(C(=O)N(CCc2ccncc2)C2CCCC2)c1Cl [Example 204] | 1.32 | –

Row | SMILES | logP [1] | also measured
49 | COC(CNC(=O)c1cn(C)nc1C(F)F)c1ccc(Cl)cc1Cl (stereo not shown) [1.02 from WO-2008/148570, N-[2-(2,4-dichlorophenyl)-2-methoxyethyl]-3-(difluoromethyl)-1-methyl-1H-pyrazole-4-carboxamide, reference compound] | – | Efficacy (Alternaria solani; 100 ppm of active ingredient): 40%; Efficacy (Alternaria solani; 100 ppm of active ingredient, listed as 1.02): less than 40%; Efficacy (Alternaria solani; 500 ppm of active ingredient): 80%; Efficacy (Alternaria solani; 500 ppm of active ingredient, listed as 1.02): at least 80%
50 | COCCN(CCc1ccccn1)C(=O)c1c(C(F)F)nn(C)c1Cl [Example 184] | 0.63 | –
51 | Cn1nc(C(F)F)c(C(=O)N(CCC#N)CCc2ccccc2)c1F [Example 3] | 2.39 | –
52 | CC(C)N(CCc1ccccc1)C(=O)c1c(C(F)F)nn(C)c1F [Example 2] | 3.19 | –
53 | Cn1nc(C(F)F)c(C(=O)NCC(C)(C)c2cccc(Oc3ccccc3)c2)c1Cl [Example 149] | 4.15 | –
54 | CN(CCc1ccccn1)C(=O)c1c(C(F)F)nn(C)c1Cl [Example 183] | 1.63 | –
55 | Cn1nc(C(F)F)c(C(=O)N(CCc2ccccc2)CC(F)(F)F)c1F [Example 5] | 3.25 | Efficacy (Pyrenophora teres): 80%
56 | CC(C)N(CCc1ccc(F)cc1)C(=O)c1c(C(F)F)nn(C)c1Cl [Example 25] | 3.37 | –
57 | Cn1nc(C(F)F)c(C(=O)NCC(C)(C)c2cccc(Cl)c2)c1Cl [Example 54] | 3.53 | –
58 | Cn1nc(C(F)F)c(C(=O)NC2CC2c2ccccc2C(F)(F)F)c1Cl (stereo not shown) [Example 226] | 3.15 | –
59 | Cn1nc(C(F)F)c(C(=O)NCCc2cccc(Oc3ccccc3)c2)c1Cl [Example 145] | 3.55 | Efficacy (Alternaria solani; 500 ppm of active ingredient): 95%
60 | CC(C)N(CCc1ccncc1)C(=O)c1c(C(F)F)nn(C)c1F [Example 198] | 0.78 | –
61 | Cn1nc(C(F)F)c(C(=O)NC2CC2c2cccc(F)c2)c1Cl (stereo not shown) [Example 223] | 2.75 | –
62 | CN(CCc1ccccn1)C(=O)c1c(C(F)F)nn(C)c1F [Example 179] | 1.47 | –
63 | Cn1nc(C(F)F)c(C(=O)N(CCc2ccncc2)C2CCCCC2)c1Cl [Example 203] | 1.50 | –
64 | Cn1nc(C(F)F)c(C(=O)N(CCc2ccccc2)CC(F)(F)F)c1Cl [Example 10] | 3.39 | –
65 | Cn1nc(C(F)F)c(C(=O)N(CCc2ccccn2)C2CCCCC2)c1Cl [Example 180] | 1.58 | –
66 | Cc1cc(C)c(CCN(C(=O)c2c(C(F)F)nn(C)c2F)C(C)C)c(C)c1 [Example 134] | 4.30 | –
67 | Cn1nc(C(F)F)c(C(=O)NCC(C)(C)c2cc(Cl)cc(Cl)c2)c1Cl [Example 114] | 4.01 | Efficacy (Pyrenophora teres): 80%
68 | CC(C)N(CCc1ccccc1)C(=O)c1c(C(F)F)nn(C)c1Cl [Example 7] | 3.35 | –
69 | Cn1nc(C(F)F)c(C(=S)NC[Si](C)(C)c2ccc(Cl)cc2Cl)c1F [Example 241] | 4.74 | Efficacy (Pyrenophora teres): 100%
70 | Cc1cc(C)c(CCN(C(=O)c2c(C(F)F)nn(C)c2Cl)C(C)C)c(C)c1 [Example 136] | 4.49 | –
71 | Cc1cccnc1CC(NC(=O)c1c(C(F)F)nn(C)c1Cl)C(F)(F)F (stereo not shown) [Example 186] | 1.70 | –
72 | CC(C)N(CCc1ccccn1)C(=O)c1c(C(F)F)nn(C)c1F [Example 178] | 0.85 | –
